From patent US12398120B2, “Substituted hydantoinamides as ADAMTS7 antagonists” (BAYER AKTIENGESELLSCHAFT, priority 2019, dated 2025)

What follows are compounds tested against ADAMTS4 (Homo sapiens (Human), UniProt O75173) (assay: Selectivity assay for ADAMTS-7 modulators: ADAMTS4 (FRET substrate)). Conditions: ADAMTS4 (R&D 4307-AD) 50 nM, substrate Dabcyl-EEVKAKVQPY-Glu(Edans)-NH2 1 μM, 120 min, 32° C.
Format: biochemical
Method in brief: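 Activity read as rising fluorescence after a FRET substrate is cleaved by human ADAMTS4, with reactions started by substrate addition to wells holding compound or DMSO. Percent inhibition plotted against concentration gave IC50.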

Sequence of ADAMTS4 (O75173 213-685): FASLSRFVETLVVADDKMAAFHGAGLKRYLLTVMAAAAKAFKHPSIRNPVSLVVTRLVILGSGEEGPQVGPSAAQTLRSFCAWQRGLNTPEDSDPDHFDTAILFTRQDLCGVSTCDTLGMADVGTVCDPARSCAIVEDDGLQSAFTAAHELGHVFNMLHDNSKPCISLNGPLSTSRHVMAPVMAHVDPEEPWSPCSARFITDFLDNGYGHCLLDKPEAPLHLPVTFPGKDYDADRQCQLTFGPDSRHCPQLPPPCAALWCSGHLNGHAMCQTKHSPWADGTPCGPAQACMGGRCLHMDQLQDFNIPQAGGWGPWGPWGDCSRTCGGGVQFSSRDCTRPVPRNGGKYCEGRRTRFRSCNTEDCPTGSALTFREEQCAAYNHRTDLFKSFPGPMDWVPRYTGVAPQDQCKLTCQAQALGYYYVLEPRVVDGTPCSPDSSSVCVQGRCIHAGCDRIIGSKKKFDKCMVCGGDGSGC

Row | IC50 | Structure (SMILES)
1 | > 50 µM | CC(C)C1(CNC(=O)c2ccc(F)cc2-c2ccc(C(F)(F)F)cc2)NC(=O)NC1=O (single isomer, unassigned; ent-5) [Example 207, Ent-5-Fluoro-N-[(4-Isopropyl-2,5-Dioxoimidazolidin-4-Yl)Methyl]-4′-(Trifluoromethyl)[Biphenyl]-2-Carboxamide]
2 | 11 µM | O=C1NC(=O)C(CNC(=O)c2ccc(F)cc2-c2ccc(C(F)(F)F)cc2)(C2(F)CC2)N1 (single isomer, unassigned; ent-5) [Example 253, Ent-5-Fluoro-N-{[4-(1-Fluorocyclopropyl)-2,5-Dioxoimidazolidin-4-Yl]Methyl}-4′-(Trifluoromethyl)[Biphenyl]-2-Carboxamide]
3 | 0.16 µM | Cc1ccc(C(=O)NCC2(c3nccn3C)NC(=O)NC2=O)c(-c2ccc(C(F)(F)F)cc2)c1C (single isomer, unassigned; ent-5) [Example 287, Ent-5,6-Dimethyl-N-{[4-(1-Methyl-1H-Imidazol-2-Yl)-2,5-Dioxoimidazolidin-4-Yl]Methyl}-4′-(Trifluoromethyl)[Biphenyl]-2-Carboxamide]
4 | 9.5 µM | Cn1nccc1C1(CNC(=O)c2cc(F)ccc2-c2ccc(C(F)(F)F)nc2)NC(=O)NC1=O (single isomer, unassigned; ent-5) [Example 292, Ent-5-Fluoro-N-{[4-(1-Methyl-1H-Pyrazol-5-Yl)-2,5-Dioxoimidazolidin-4-Yl]Methyl}-2-[6-(Trifluoromethyl)Pyridin-3-Yl]Benzamide]
5 | 37 µM | O=C1NC(=O)C(CNC(=O)c2ccc(F)cc2-c2ccc(C(F)(F)F)cc2)(C23CC(F)(C2)C3)N1 (single isomer, unassigned; ent-5) [Example 294, Ent-5-Fluoro-N-{[4-(3-Fluorobicyclo[1.1.1]Pentan-1-Yl)-2,5-Dioxoimidazolidin-4-Yl]Methyl}-4′-(Trifluoromethyl)[Biphenyl]-2-Carboxamide]
6 | 9.3 µM | O=C1NC(=O)C(CNC(=O)c2ccc(F)c(F)c2-c2ccc(C(F)(F)F)cc2)(C2(F)CC2)N1 (single isomer, unassigned; ent-5) [Example 298, Ent-5,6-Difluoro-N-{[4-(1-Fluorocyclopropyl)-2,5-Dioxoimidazolidin-4-Yl]Methyl}-4′-(Trifluoromethyl)[Biphenyl]-2-Carboxamide]
7 | 4.2 µM | Cc1ccc(C(=O)NCC2(c3ccnn3C)NC(=O)NC2=O)c(-c2ccc(C(F)(F)F)cc2)c1 (single isomer, unassigned; ent-5) [Example 308, Ent-5-Methyl-N-{[4-(1-Methyl-1H-Pyrazol-5-Yl)-2,5-Dioxoimidazolidin-4-Yl]Methyl}-4′-(Trifluoromethyl)[Biphenyl]-2-Carboxamide]
8 | 2.7 µM | Cn1nccc1C1(CNC(=O)c2ccc(C(F)F)cc2-c2ccc(C(F)(F)F)cc2)NC(=O)NC1=O (single isomer, unassigned; ent-5) [Example 309, Ent-5-(Difluoromethyl)-N-{[4-(1-Methyl-1H-Pyrazol-5-Yl)-2,5-Dioxoimidazolidin-4-Yl]Methyl}-4′-(Trifluoromethyl)[Biphenyl]-2-Carboxamide]
9 | 1.6 µM | Cc1cccc(C(=O)NCC2(c3nccn3C)NC(=O)NC2=O)c1-c1ccc(C(F)(F)F)cc1 (single isomer, unassigned; ent-6) [Example 133, Ent-6-Methyl-N-{[4-(1-Methyl-1H-Imidazol-2-Yl)-2,5-Dioxoimidazolidin-4-Yl]Methyl}-4′-(Trifluoromethyl)[1,1′-Biphenyl]-2-Carboxamide]
10 | 1.3 µM | Cn1ccnc1C1(CNC(=O)c2cccc(F)c2-c2ccc(C(F)(F)F)cc2)NC(=O)NC1=O (single isomer, unassigned; ent-6) [Example 163, Ent-6-Fluoro-N-{[4-(1-Methyl-1H-Imidazol-2-Yl)-2,5-Dioxoimidazolidin-4-Yl]Methyl}-4′-(Trifluoromethyl)[Biphenyl]-2-Carboxamide]
11 | 4.63 µM | Cn1nccc1C1(CNC(=O)c2cccc(F)c2-c2ccc(C(F)(F)F)cc2)NC(=O)NC1=O (single isomer, unassigned; ent-6) [Example 195, Ent-6-Fluoro-N-{[4-(1-Methyl-1H-Pyrazol-5-Yl)-2,5-Dioxoimidazolidin-4-Yl]Methyl}-4′-(Trifluoromethyl)[Biphenyl]-2-Carboxamide]
12 | 23 µM | CC(C)C1(CNC(=O)c2cccc(F)c2-c2ccc(C(F)(F)F)cc2)NC(=O)NC1=O (single isomer, unassigned; ent-6) [Example 210, Ent-6-Fluoro-N-[(4-Isopropyl-2,5-Dioxoimidazolidin-4-Yl)Methyl]-4′-(Trifluoromethyl)[Biphenyl]-2-Carboxamide]
13 | 23 µM | O=C1NC(=O)C(CNC(=O)c2cccc(F)c2-c2ccc(C(F)(F)F)cc2)(C2(F)CC2)N1 (single isomer, unassigned; ent-6) [Example 300, Ent-6-Fluoro-N-{[4-(1-Fluorocyclopropyl)-2,5-Dioxoimidazolidin-4-Yl]Methyl}-4′-(Trifluoromethyl)[Biphenyl]-2-Carboxamide]
14 | 1.9 µM | Cn1nccc1C1(CNC(=O)c2cccc(Cl)c2-c2ccc(C(F)(F)F)cc2)NC(=O)NC1=O (single isomer, unassigned; ent-6) [Example 310, Ent-6-Chloro-N-{[4-(1-Methyl-1H-Pyrazol-5-Yl)-2,5-Dioxoimidazolidin-4-Yl]Methyl}-4′-(Trifluoromethyl)[Biphenyl]-2-Carboxamide]
15 | > 50 µM | CC1CCC1C1(CNC(=O)c2ccccc2-c2ccc(C(F)(F)F)cc2)NC(=O)NC1=O (centres unmarked) [Example 13, Diamix-N-{[4-(2-Methylcyclobutyl)-2,5-Dioxoimidazolidin-4-Yl]Methyl}-4′-(Trifluoromethyl)[Biphenyl]-2-Carboxamide]
16 | > 50 µM | Cc1ccc(-c2cnccc2C(=O)NC[C@@]2(C3CC3)NC(=O)NC2=O)cc1 [Example 19, N-{[(4R)-4-Cyclopropyl-2,5-Dioxoimidazolidin-4-Yl]Methyl}-3-(4-Methylphenyl)Isonicotinamide]
17 | 28 µM | O=C1NC(=O)[C@](CNC(=O)c2cc(F)c(F)cc2-c2ccc(C(F)(F)F)cc2)(C2CC2)N1 [Example 20, N-{[(4R)-4-Cyclopropyl-2,5-Dioxoimidazolidin-4-Yl]Methyl}-4,5-Difluoro-4′-(Trifluoromethyl)[Biphenyl]-2-Carboxamide]
18 | > 50 µM | O=C1NC(=O)[C@](CNC(=O)c2ccccc2-c2ccc(OC(F)(F)F)cc2)(C2CC2)N1 [Example 21, N-{[(4R)-4-Cyclopropyl-2,5-Dioxoimidazolidin-4-Yl]Methyl}-4′-(Trifluoromethoxy)[Biphenyl]-2-Carboxamide]
19 | 3.9 µM | Cc1ccc(-c2cc(C)ccc2C(=O)NC[C@@]2(C3CC3)NC(=O)NC2=O)cc1 [Example 22, N-{[(4R)-4-Cyclopropyl-2,5-Dioxoimidazolidin-4-Yl]Methyl}-4′,5-Dimethyl[Biphenyl]-2-Carboxamide]
20 | 12.5 µM | O=C1NC(=O)[C@](CNC(=O)c2ccc(F)c(F)c2-c2ccc(C(F)(F)F)cc2)(C2CC2)N1 [Example 23, N-{[(4R)-4-Cyclopropyl-2,5-Dioxoimidazolidin-4-Yl]Methyl}-5,6-Difluoro-4′-(Trifluoromethyl)[Biphenyl]-2-Carboxamide]
21 | > 50 µM | CC1CCC1C1(CNC(=O)c2ccccc2-c2ccc(C(F)(F)F)cc2)NC(=O)NC1=O (stereo not drawn) [Example 26, Ent-N-{[4-(2-Methylcyclobutyl)-2,5-Dioxoimidazolidin-4-Yl]Methyl}-4′-(Trifluoromethyl)[Biphenyl]-2-Carboxamide]
22 | 9.1 µM | Cc1ncsc1C1(CNC(=O)c2ccccc2-c2ccc(C(F)(F)F)cc2)NC(=O)NC1=O (stereo not drawn) [Example 27, Ent-N-{[4-(4-Methyl-1,3-Thiazol-5-Yl)-2,5-Dioxoimidazolidin-4-Yl]Methyl}-4′-(Trifluoromethyl)[Biphenyl]-2-Carboxamide]
23 | 11 µM | O=C1NC(=O)C(CNC(=O)c2ccccc2-c2ccc(C(F)(F)F)cc2)(c2ccnn2CC(F)(F)F)N1 (stereo not drawn) [Example 28, Ent-N-({2,5-Dioxo-4-[1-(2,2,2-Trifluoroethyl)-1H-Pyrazol-5-Yl]Imidazolidin-4-Yl}Methyl)-4′-(Trifluoromethyl)[Biphenyl]-2-Carboxamide]
24 | 6.5 µM | Cc1c(C2(CNC(=O)c3ccccc3-c3ccc(C(F)(F)F)cc3)NC(=O)NC2=O)cnn1C (stereo not drawn) [Example 31, Ent-N-{[4-(1,5-Dimethyl-1H-Pyrazol-4-Yl)-2,5-Dioxoimidazolidin-4-Yl]Methyl}-4′-(Trifluoromethyl)[Biphenyl]-2-Carboxamide]
25 | 8.7 µM | Cc1ncsc1C1(CNC(=O)c2ccccc2-c2ccc(C(F)(F)F)nc2)NC(=O)NC1=O (stereo not drawn) [Example 37, Ent-N-{[4-(4-Methyl-1,3-Thiazol-5-Yl)-2,5-Dioxoimidazolidin-4-Yl]Methyl}-2-[6-(Trifluoromethyl)Pyridin-3-Yl]Benzamide]
26 | 21 µM | CCC(C)C1(CNC(=O)c2ccccc2-c2ccc(C(F)(F)F)cc2)NC(=O)NC1=O (centres unmarked) [Example 38, Diamix-N-[(4-Sec-Butyl-2,5-Dioxoimidazolidin-4-Yl)Methyl]-4′-(Trifluoromethyl)[Biphenyl]-2-Carboxamide]
27 | 4.8 µM | O=C1NC(=O)C(CNC(=O)c2ccccc2-c2ccc(C(F)(F)F)cc2)(c2ccnn2C2CC2)N1 (stereo not drawn) [Example 46, Ent-N-{[4-(1-Cyclopropyl-1H-Pyrazol-5-Yl)-2,5-Dioxoimidazolidin-4-Yl]Methyl}-4′-(Trifluoromethyl)[Biphenyl]-2-Carboxamide]
28 | 4.15 µM | Cc1nc(C)c(C2(CNC(=O)c3ccccc3-c3ccc(C(F)(F)F)cc3)NC(=O)NC2=O)s1 (stereo not drawn) [Example 47, Ent-N-{[4-(2,4-Dimethyl-1,3-Thiazol-5-Yl)-2,5-Dioxoimidazolidin-4-Yl]Methyl}-4′-(Trifluoromethyl)[Biphenyl]-2-Carboxamide]

Row | Structure (SMILES) | IC50
29 | Cn1nccc1C1(CNC(=O)c2ccc(F)c(F)c2-c2ccc(C(F)(F)F)cc2)NC(=O)NC1=O (single isomer, unassigned; ent-5) [Example 191, Ent-5,6-Difluoro-N-{[4-(1-Methyl-1H-Pyrazol-5-Yl)-2,5-Dioxoimidazolidin-4-Yl]Methyl}-4′-(Trifluoromethyl)[Biphenyl]-2-Carboxamide] | 6.48 µM
